According to patent US20240181000A1, “LGG-DERIVED PEPTIDES AND METHODS OF USE THEREOF” (Ohio State Innovation Foundation, priority 2021, published 2024):
No end group written: not given here.

Experiments:
ST membrane = test: Transmission electron microscopy; type: cell-based, Salmonella enterica; conditions: 10×MIC, 3 h
Experimental: ST was treated with 10× peptide MIC and incubated for 3 h.
Transmission electron microscopy: To further visually analyze the inhibitory effects of P1 and P2 on ST, transmission electron microscopy (TEM) was performed as described previously. […] After which, cells were fixed overnight with 3% glutaraldehyde and 2% paraformaldehyde at room temperature. Cells were then washed and postfixed with 1% osmium tetroxide (OsO4). The washed cells were then dehydrated, with graded ethanol, and embedded with Embed 812 kit (Electron Microscopy Sciences, Pa). Ultrathin (70 nm) sections were prepared on formvar-carbon coated grids and stained with uranyl acetate and lead citrate. Untreated ST was used as a control. TEM was conducted at MCIC using the Hitachi H-7500 microscope.

APEC O78 membrane = test: Transmission electron microscopy; type: cell-based, E. coli; conditions: 10×MIC, 3 h
Experimental: Transmission electron microscopy: To visualize the effect of peptides (P1, P2, and P3) on APEC membrane, transmission electron microscopy (TEM) was performed as described previously. The peptide treatment was performed as described above. […] After incubation, cells were fixed overnight at room temperature with 3% glutaraldehyde & 2% paraformaldehyde), washed, and postfixed with 1% osmium tetroxide (OsO4). The cells were then dehydrated with graded ethanol series and embedding was performed using Embed 812 Kit (Electron Microscopy Sciences, PA). Ultrathin (70 nm) sections were prepared on formvar-carbon coated grids and stained with uranyl acetate and lead citrate. Microscopy was performed using Hitachi H-7500 microscope at MCIC. Untreated bacterial culture was used as control.

APEC O78 = test: Efficacy of peptides in chickens (oral, twice a day); type: in vivo; conditions: for Reduction of APEC colonization in cecum: 7 dpi
Experimental: Peptides were administered through orally twice a day from day 1 to day 7 either at 50 mg/kg or 100 mg/kg dose. On day 2, chickens were infected orally with Rif^γ APEC O78 (1-2×10^9 CFU/chicken). At day 9, chickens were euthanized, necropsied and cecum and internal organs (lung, liver, heart, and kidney) were processed for quantification of APEC load. The body weight of chickens was measured at day 9.
Efficacy of peptides in chickens: Animal study was approved by The Ohio State University Institutional Animal Care and Use Committee (IACUC, protocol #2010 A00000149). Chickens were euthanized using CO2 following American Veterinary Medical Association (AVMA) guidelines. Standard animal husbandry practices were followed throughout the experiment. Feed and water were provided ad libitum. The efficacy of peptides (P1, P2, and P3) were assessed at 50 mg/kg and 100 mg/kg doses in two successive experiments using commercial broiler chickens (n=10/group) (Cobb & Ross; Case Farms Ohio Hatchery, Strasburg, OH). […] Briefly, peptides dissolved in water [5 mg (50 mg/kg) or 10 mg (100 mg/kg) in 100 μL] were administered orally twice a day from day 1 (one day before APEC infection) today 7 (5 days post-infection; dpi). On day 2, chickens were infected orally with rifampicin resistant (Rif) APEC O78(27) (1-2×10^9 CFU/chicken). At 7 dpi (day 9), chickens were euthanized, necropsied and cecum and internal organs (lung, liver, heart, and kidney) were assessed for APEC load by plating on MacConkey agar plates containing 50 μg/mL rifampicin. The body weight of chickens was measured at the day of necropsy (day 9). The positive (PC; infected but not treated) and negative (NC; non-infected and non-treated) control chickens were included in both experiments. The statistical significance (P<0.05) of treatment on reduction of APEC load and effect on body weight was calculated using one-way ANOVA followed by Tukey's post-hoc test. […] Bacteria were grown in LB media and MICs were determined as above against respective peptides.

biofilm protected APEC = test: MBEC-HTP assay; type: cell-based, E. coli; conditions: at MICs, 18 h; untreated 7.54 ± 0.07
Experimental: MBEC™-HTP assay: To test the efficacy of the peptides (P1, P2, and P3) against biofilm protected APEC, Innovotech's MBEC Assay® was conducted as described previously(27). Briefly, 150 μL of 0.05 OD600 (5×10^7 CFU/mL) adjusted APEC suspension in LB media was aliquoted into the wells of MBEC™ device containing polystyrene pegs and incubated for 36 h on a rocker platform at 37° C. to allow the biofilm formation. After biofilm formation, the pegs were washed to remove loosely adherent planktonic bacteria and transferred to a new 96-well plate (challenge plate) containing peptides at MICs in 200 μL diluted (25%) LB media. The diluted LB media mimics the minimal media which stimulates biofilm formation and maintenance. The plate was incubated for 18 h at 37° C. with rotation at 150 rpm. Sterile media and DMSO (solvent) were used as controls. Following incubation, the MICs of peptides in challenge plate were recorded. The peptides exposed pegs were transferred to new 96-well plate containing PBS and sonicated for 30 mins to disrupt the biofilm. The sonicated suspensions were then ten-fold serially diluted and plated on LB agar plates to enumerate the biofilm protected bacteria and the minimum biofilm eradication concentration (MBEC) of peptides were determined. Three independent experiments were conducted.

[1] = tested on: Salmonella enterica subsp. enterica serovar Enteritidis (SE); type: cell-based; conditions: No treatment
Experimental: MIC was determined by selecting peptide concentration at which there is no increased growth (no increase in OD), given indication of no ST growth. An independent repeat experiment was conducted.
Heat and protease tolerance of peptides: P1, P2, and P4 were heated for 6 minutes at 86° C. or treated with protease proteinase K, 200 μg/mL at 50° C. for 30 minutes. After which, the treated and/or heated peptides at their respective MICs were evaluated in the inhibition assay with Salmonella. The protocol from above was repeated in the Tecan with the same controls.
To analyze the perceived efficacy of arginine and lysine substitutes reported in previous studies, specific amino acid residues in P1 and P2 were replaced with lysine or arginine to test if the alliterations enhanced anti-Salmonella (ST and SE) activity. The MICs of the arginine or lysine substituted peptides ([…] (SEQ ID NO:37), […] (SEQ ID NO:38), […] (SEQ ID NO:39), KDENK (SEQ ID NO:41), PDEKK (SEQ ID NO:42), KDEKK (SEQ ID NO:43), KHTAPK (SEQ ID NO:45)) were determined as described early. Two independent experiments were conducted to ensure accuracy.

In the case of PDENK [Peptide P2, PDENK], the “ST membrane in TEM” value (ST membrane) is reported as “disruption of the membrane characterized by sloughed or flaccid appearance”, the “APEC membrane in TEM” value (APEC O78 membrane) is reported as “membrane either sloughed (or shed), ruptured, or flaccid” and the “Reduction of APEC colonization in cecum” value (APEC O78; 50 mg/kg dose) is reported as 0.9 logs. The “Number of chickens positive for APEC in internal organs” value (APEC O78; 100 mg/kg dose) was “reduced the number of chickens positive for APEC”, the “Reduction of APEC colonization in cecum” value (APEC O78; 100 mg/kg dose) was 1.3 logs and the “Biofilm protected APEC (log CFU/mL)” value (biofilm protected APEC) was 0.00 ± 0.00 log CFU/mL. For the same substance, the “MIC against SE” value [1] was 15 mM.
